Laboratory results published in a compilation of properties of binary mixtures (doi:10.1021/acs.jpcb.9b04724).

Assay: xn = mol fraction of the nth substance listed
Conditions: 101 kPa

CC[n+]1ccn(C)c1.N#C[N-]C#N + CCCC[N+](C)(CCCC)CCCC.N#C[N-]C#N
x1 = 1
Conditions | viscosity [mPa·s]
293.15 K | 17.41
313.15 K | 10.05
333.15 K | 6.65

CCCC[N+](C)(CCCC)CCCC.N#C[N-]C#N + CC[n+]1ccn(C)c1.N#C[N-]C#N
viscosity [mPa·s]
Conditions | 293.15 K | 303.15 K | 313.15 K | 323.15 K | 333.15 K | 343.15 K | 353.15 K
x2 = 0 | 498 | 239 | 127.3 | 74.9 | 47.6 | 32 | 22.6
x2 = 0.2114 | 201 | – | 65.2 | 42.1 | 28.7 | – | –
x2 = 0.3975 | 101.3 | 60.6 | 39.2 | 26.8 | – | 14.44 | –
x2 = 0.6047 | 50.5 | – | 22.87 | 16.69 | 12.65 | 10.13 | 8.18
x2 = 0.8003 | 28.3 | 19.8 | 14.56 | 11.15 | 9.11 | 7.26 | 5.93
